Measured values: ChEMBL document CHEMBL5620426, “Discovery of 3-(1H-benzo[d]imidazole-2-yl)-1H-pyrazol-4 -amine derivatives as novel and potent syk inhibitors for the treatment of hematological malignancies” (Eur J Med Chem, 2023)
pIC50: −log10 of the molar value.

Experiments:
[1] = Half life in fasted Sprague-Dawley rat at 10 mg/kg, po measured for 24 hrs by LC-MS/MS analysis; type: ADME, organism-based; settings: in vivo
[2] = molecular target: T1, Tyrosine-protein kinase SYK (Homo sapiens, UniProt P43405); test: Inhibition of SYK phosphorylation in human Ramos cells incubated for 2 hrs by Western blot analysis; type: cell-based; settings: dose <= 500.0 nM
[3] = system: Daudi; test: Antiproliferative activity against human Daudi cells assessed as inhibition of cell viability incubated for 72 hrs by Cell Titer Glo assay; type: functional, cell-based
[4] = Toxicity in nude BALB/c mouse xenografted with human MV4-11 cells assessed as animal mortality at 1 mg/kg, iv qd for 21 days administered consecutively; type: organism-based; settings: in vivo, 504 h, time 21 day
[5] = molecular target: T1, Tyrosine-protein kinase SYK; test: Inhibition of Syk (unknown origin) preincubated for 20 mins followed by 33P-gamma-ATP measured after 120 mins by HotSpot assay
[6] = Volume of distribution at steady state in fasted Sprague-Dawley rat at 1 mg/kg, iv measured for 24 hrs by LC-MS/MS analysis; type: ADME, organism-based; settings: in vivo, read-out: Vdss
[7] = system: MV4-11; test: Inhibition of cell viability in human MV4-11 cells incubated for 72 hrs by Cell Titer Glo assay; type: functional, cell-based; settings: MV4-11, 72 h
[8] = Clearance in fasted Sprague-Dawley rat at 1 mg/kg, iv measured for 24 hrs by LC-MS/MS analysis; type: ADME, organism-based; settings: in vivo
[9] = molecular target: T1, Tyrosine-protein kinase SYK; test: Inhibition of SYK in human Ramos cells assessed as decrease in PLC-gamma-2 phosphorylation incubated for 2 hrs by Western blot analysis; type: cell-based; settings: dose <= 500.0 nM
[10] = Cmax in fasted Sprague-Dawley rat at 10 mg/kg, po measured for 24 hrs by LC-MS/MS analysis; type: ADME, organism-based; settings: in vivo
[11] = Toxicity in nude BALB/c mouse xenografted with human MV4-11 cells assessed as body weight loss at 1 mg/kg, iv qd for 21 days administered consecutively; type: organism-based; settings: in vivo, 504 h, time 21 day
[12] = system: Rec1; test: Antiproliferative activity against human REC1 cells assessed as inhibition of cell viability incubated for 72 hrs by Cell Titer Glo assay; type: functional, cell-based; settings: Rec1, 72 h
[13] = system: DOHH-2; test: Antiproliferative activity against human DOHH-2 cells assessed as inhibition of cell viability incubated for 72 hrs by Cell Titer Glo assay; type: functional, cell-based; settings: DOHH-2, 72 h
[14] = Toxicity in nude BALB/c mouse xenografted with human MV4-11 cells assessed as systemic cytotoxicity at 1 mg/kg, iv qd for 21 days administered consecutively; type: organism-based; settings: in vivo, 504 h, time 21 day
[15] = system: SU-DHL-6; test: Antiproliferative activity against human SU-DHL-6 cells assessed as inhibition of cell viability incubated for 72 hrs by Cell Titer Glo assay; type: functional, cell-based; settings: SU-DHL-6, 72 h
[16] = system: Ramos; test: Inhibition of […] in serum-starved human Ramos cells incubated for 1 hr followed by anti-human IgM F(ab)2 measured after 5 mins; type: functional, cell-based
[17] = Half life in fasted Sprague-Dawley rat at 1 mg/kg, iv measured for 24 hrs by LC-MS/MS analysis; type: ADME, organism-based; settings: in vivo
[18] = system: MV4-11; test: Antitumor activity against human MV4-11 cells xenografted in nude BALB/c mouse assessed as tumor growth inhibition at 1 mg/kg, iv qd for 21 days administered consecutively relative to control; type: functional; settings: MV4-11, 504 h, time 21 day, read-out: TGI
[19] = system: TMD8; test: Antiproliferative activity against human TMD8 cells assessed as inhibition of cell viability incubated for 72 hrs by Cell Titer Glo assay; type: functional, cell-based; settings: TMD8, 72 h
[20] = C0 in fasted Sprague-Dawley rat at 1 mg/kg, iv measured for 24 hrs by LC-MS/MS analysis; type: ADME, organism-based; settings: in vivo
[21] = Tmax in fasted Sprague-Dawley rat at 10 mg/kg, po measured for 24 hrs by LC-MS/MS analysis; type: ADME, organism-based; settings: in vivo
[22] = Oral bioavailability in fasted Sprague-Dawley rat at 10 mg/kg measured for 24 hrs by LC-MS/MS analysis; type: ADME, organism-based; settings: in vivo
[23] = Metabolic stability in human liver microsomes assessed as half life at […] incubated for 60 mins in presence of NADPH by LC-MS/MS analysis; type: ADME, Microsome
[24] = AUC in fasted Sprague-Dawley rat at 10 mg/kg, po measured for 24 hrs by LC-MS/MS analysis; type: ADME, organism-based; settings: in vivo
[25] = AUC in fasted Sprague-Dawley rat at 1 mg/kg, iv measured for 24 hrs by LC-MS/MS analysis; type: ADME, organism-based; settings: in vivo
[26] = Metabolic stability in human liver microsomes assessed as intrinsic clearance at […] incubated for 60 mins in presence of NADPH by LC-MS/MS analysis; type: ADME, Microsome; settings: read-out: CLH

Question: What does the source list for CC(C)N1CCN(c2ccc3[nH]c(-c4n[nH]cc4Nc4ncnc5[nH]ccc45)nc3c2)CC1?
Answer: half-life [1]: 3.79 h; inhibition [2]: Dose-Dependent Effect; pIC50 [3]: 6.14; Activity [4]: Non-Toxic; pIC50 [5]: 9.28; Vd [6]: 8.93 L/kg; pIC50 [7]: 8.82; clearance [8]: 2 L/h/kg; inhibition [9]: Dose-Dependent Effect; Cmax [10]: 0.0181 µg/mL; Activity [11]: Non-Toxic; pIC50 [12]: 7.46; pIC50 [13]: 8.06; Activity [14]: Non-Toxic; pIC50 [15]: 6.67; pIC50 [16]: 7.74; half-life [17]: 6.4 h; inhibition in vivo at 1 mg/kg [18]: 99.3%; pIC50 [19]: 7.96; C0 at 24 h [20]: 1.24 µg/mL; Tmax [21]: 0.833 h; bioavailability [22]: 1.5%; half-life [23]: 1.88 h; AUC at 24 h [24]: 0.0788 µg·h/mL; AUC at 24 h [25]: 0.514 µg·h/mL; microsomal CLint [26]: 15.4 µL/min/mg
